Laboratory results taken from US20060035940A1, “(S)-Amlodipine malate” (Sepracor Inc., priority 2004, published 2006).
Counter-ions that a name gives are not always drawn. Like-named read-outs stand apart in the source and are kept apart here. Blank lines part the entries; values can stand above or below the compound they belong to.

Experiments:
[1] = Adhesion studies (tablet punch surfaces, blends with Avicel PH 101); format: physicochemical
Procedure: Avicel PH 101 and each (S)-amlodipine salt were pre-screened through a 25-mesh sieve to delump the powders prior to blending. […] Approximately 500 mg was weighed into the ½-inch tablet die, a tablet punch was added and 0.2 metric tons of pressure was applied using a Carver press for 2-3 seconds. The tablet was then removed, and the surfaces of the tablet punches (concave, SRC) were washed with mobile phase (1 mL). The wash was then assayed by HPLC. Three measurements were made for each blend.

[2] = Moisture balance (VTI SGA-100 sorption isotherm); format: physicochemical; conditions: equilibrated at 95% RH (sorption range 5% to 95% RH)
Procedure: Moisture-sorption data were collected on a VTI SGA-100 moisture balance system. […] The sample was not dried prior to analysis. Equilibrium criteria used for analysis were less than 0.0100 weight-percent change in 5 minutes with a maximum equilibration time of 3 hours if the weight criterion was not met. The data were not corrected for the initial moisture content of the sample.

[3] = TGA, water content and moisture sorption profiles; format: physicochemical
Procedure: Moisture Sorption Isotherms: Moisture sorption isotherms were generated using VTI SGA-100 symmetric vapor sorption analyzer. Samples were not pre-dried. Equilibrium criteria were the lesser of 0.01 wt % change in 5 minutes or 180 minutes at each RH step. Temperature was fixed at 25° C. and the relative humidity steps (25% to 95% to 25%) were in 5% increments. In FIG. 27, adsorption data is shown as a solid line with desorption data connected by a dashed line. Water Content: Water content was determined by coulometric titration using an EM Science Aquastar® C300 Karl Fischer titrator. TGA: Samples were analyzed using Perkin Elmer TGA 7 thermal gravimetric analyzer at a heating rate of 10° C./min.

[4] = Hygroscopicity and desolvation studies of crystal forms (XRPD); format: physicochemical; conditions: 31, 75, 84 and 95% relative humidity, approximately one week
Procedure: Hygroscopicity studies were performed by placing portions of a select form in a 11, 32, 45, 66, 75, 84% or 95% relative humidity (RH) chamber for approximately one to three weeks. Desolvation studies were carried out by heating each form in an 80° C. oven for approximately one week. Interconversion experiments were carried out by making slurries containing two forms in a saturated solvent. The slurries were agitated for approximately seven days at ambient temperature. The insoluble solids were recovered by filtration and analyzed using XRPD.

[5] = format: physicochemical; conditions: for pH of saturated solution: DI H2O, ambient temperature
Excerpt: The solution was sampled periodically, filtered using a 0.2 μm PTFE syringe filter and assayed by HPLC.
The sample was filtered through a 0.2 μm filter and assayed by HPLC.

Solid state stability = format: physicochemical; conditions: 60° C./75% RH
Procedure: Individual samples were prepared and stored at 25° C./60% RH and 40° C./75% RH. Samples stored at 60° C./75% RH were packaged in uncapped glass vials. All samples were analyzed for assay and impurity by HPLC.

[6] = 5% (S)-Amlodipine salt in Avicel
[7] = 25% (S)-Amlodipine salt in Avicel

Compound: O=C(O)[C@H](O)[C@@H](O)C(=O)O [(L)-Tartrate]
Adhesion [1, 6]: 9.3E−07 g (S)-amlodipine/cm^2
Adhesion [1, 7]: 4.9E−06 g (S)-amlodipine/cm^2

Compound: CCOC(=O)C1=C(COCCN)NC(C)=C(C(=O)OC)[C@@H]1c1ccccc1Cl.O=C(O)C(O)C(O)C(=O)O [(S)-amlodipine D-tartrate]
Adhesion [1, 6]: 6.0E−07 g (S)-amlodipine/cm^2
Adhesion [1, 7]: 2.8E−06 g (S)-amlodipine/cm^2

Compound: CCOC(=O)C1=C(COCCN)NC(C)=C(C(=O)OC)[C@@H]1c1ccccc1Cl [(S)-amlodipine maleate]
Adhesion [1, 6]: 5.8E−07 g (S)-amlodipine/cm^2
Adhesion [1, 7]: 3.9E−06 g (S)-amlodipine/cm^2

Compound: CCOC(=O)C1=C(COCCN)NC(C)=C(C(=O)OC)C1c1ccccc1Cl.O=C(O)CC(O)C(=O)O [form D′, (S)-Amlodipine-D-malate]
increase in weight (moisture balance) [2]: 0.3%

Moisture Desorption ([3]; at 25% RH, 25° C.): 0.06 % wt remaining
Moisture Adsorption ([3]; at 95% RH, 25° C.): 0.24 % wt gain
KF water content ([3]; coulometric Karl Fischer): 0.13 % H2O
TGA ([3]; heating rate 10° C./min): 0.14 % wt loss
hygroscopicity ([3]; moisture sorption, TGA and Karl Fischer data): not hygroscopic
crystal form after hygroscopicity study [4]: remained unchanged
increase in weight (moisture balance) [2]: 0.5%
pH of saturated solution ([5]; initial salt screen): 4.0
pH of saturated solution ([5]; more recent sample): 3.56
Free Base Concentration (solubility) ([5]; pH 3.56): 6000 µg/mL
Malate Concentration (solubility) ([5]; pH 3.56): 8000 µg/mL
Free Base Concentration (solubility) ([5]; pH 4): 10100 µg/mL
Malate Concentration (solubility) ([5]; pH 4): 13400 µg/mL
time for which solid was fairly stable (Solid state stability): > 2 months
Adhesion [1, 6]: 4.9E−07 g (S)-amlodipine/cm^2
Adhesion [1, 7]: 2.6E−06 g (S)-amlodipine/cm^2
adhesion to solid dosage form manufacturing equipment compared to other salts ([1]; blended at typical levels with Avicel): decreased adhesion
Compound: (S)-amlodipine L-malate
